Data as given in patent publication US4031198A, “Technetium-labeled complexes, production and use thereof” (priority 1974, dated 1977).

Assays:
[1] = Partition coefficient of Tc complexes, water/n-octyl alcohol, by radioactivity; format: physicochemical; conditions: water/n-octanol
Description: These partition coefficient studies involve plotting pH vs. The natural logarithm of the ratio of the activity in water to the activity in normal octyl alcohol, hereinafter referred to as ln(aw /ao). In the pH range of 5 to 8, the complex should not be so lipophilic as to have an ln(aw /ao) of less than -2, particularly at the higher pH levels. On the other hand, the hydrophilicity must also be kept within limits, as the following table illustrates:
Acid, salt, hydroxyl, amino or other polar groups present on the complexing agent molecule can provide a water solubilizing or hydrophilic effect which is reflected in higher ln aw /ao values, but due regard must be accorded to the variety of fluids, organs and tissues in mammals, each of which can have a distinctively acidic or basic environment, ranging from, for example, the low pH of the stomach to the relatively high pH of the intestines. The blood is on the mildly alkaline side at pH = 7.4. Thus, partition coefficient data on the Tc-complexes of this invention are preferably obtained throughout the pH range of 5 to 8. The use of partition coefficient data in pharmacology is well-established; see Andrejus Korolkvas, Essentials of Molecular Pharmacology, Wiley (interscience), N.Y., N.Y., 1970. […] Natural logarithms of partition coefficients are tabulated in several of the Examples which follow.
Partition coefficients for the Tc-DHT complex of this Example were determined with a water/n-octyl alcohol system over the pH range of 5 to 8 using radioactive measurements to determine the amount of Tc-99m in each phase. The expression aw /ao is the ratio of the activity in water to the activity in n-octyl alcohol. For comparison, partition coefficients over the same pH range were determined for sodium 99m pertechnetate and cysteine (HS-CH2 CH(NH2)COOH).
The aw /ao ratios for the 99mTc-4-mercaptobutanol complex were determined as in Example 1, except that two independently determined ln(aw /ao) vs. pH plots were averaged.
The aw /ao ratios for the Tc 99m complex of this Example were determined as in Example 1. The results (ln data accurate to ± 0.5) were as follows:
A series of Tc-99m complexes were made by reducing NaTcO4 and reacting the reduced Tc-99m species with the following aliphatic mercapto alcohols:
Partition coefficients were determined as in Examples 1, 3, and 5 in Tables II, III, and VI.

[2] = In vivo study of liver or gall-bladder specificity

Row | SMILES | Ln of partition coefficient, ln(aw /ao) ([1]; pH 5) | Ln of partition coefficient, ln(aw /ao) ([1]; pH 6) | Ln of partition coefficient, ln(aw /ao) ([1]; pH 7) | Ln of partition coefficient, ln(aw /ao) ([1]; pH 8) | liver or gall-bladder specificity [2] | logD ([1]; pH 5) | logD ([1]; pH 6) | logD ([1]; pH 7) | logD ([1]; pH 8)
1 | OCCCS [3-mercapto propanol] | -0.5 | -0.4 | -0.3 | -0.2 |  |  |  |  | 
2 | [Na+].[O]=[99Tc](=[O])(=[O])[O-] [Na99mTcO4, sodium 99m pertechnetate, reference compound] | +3.2 | +3.3 | +3.5 | +3.6 | insufficient liver or gall-bladder specificity |  |  |  | 
3 | CC(C)(O)CCS [4-mercapto-2-methyl-2-butanol] |  |  |  |  |  | 1 | 1.1 | 1.2 | 1.3
4 | OCCS [2-mercapto-ethanol] | -0.9 | -0.8 | -0.7 | -0.6 |  |  |  |  | 
5 | OCCCCCS [5-mercapto pentanol] |  |  |  |  |  | -0.2 | -0.1 | -0.1 | 0
